This is an account of results in patent publication US10160753B2, “Indazole compounds as IRAK4 inhibitors” (Aurigene Discovery Technologies Limited, priority 2014, dated 2018).

The IC50 is the point on the concentration scale where inhibition reaches its midpoint.

Where a name gives a salt, the structure may show the parent alone.

The target of the test is T1, recombinant IRAK-4 kinase (Homo sapiens, UniProt Q9NWZ3).
T1 construct: purchased Millipore, USA
T1 sequence (Q9NWZ3 1-460): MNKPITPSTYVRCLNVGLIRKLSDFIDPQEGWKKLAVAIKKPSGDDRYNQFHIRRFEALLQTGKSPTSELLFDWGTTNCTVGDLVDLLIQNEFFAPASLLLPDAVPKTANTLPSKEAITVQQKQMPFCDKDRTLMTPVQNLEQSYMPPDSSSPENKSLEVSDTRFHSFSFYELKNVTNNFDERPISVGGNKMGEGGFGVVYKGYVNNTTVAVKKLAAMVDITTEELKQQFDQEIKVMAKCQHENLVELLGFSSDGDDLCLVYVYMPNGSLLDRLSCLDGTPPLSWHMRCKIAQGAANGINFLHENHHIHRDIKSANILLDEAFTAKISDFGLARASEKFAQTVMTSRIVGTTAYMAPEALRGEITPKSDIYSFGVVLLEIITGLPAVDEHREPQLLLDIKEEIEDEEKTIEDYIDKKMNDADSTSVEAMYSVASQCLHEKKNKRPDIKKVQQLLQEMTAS
Kind of test: IRAK-4 Biochemical Assay (TR-FRET). Particulars: 30 min pre-incubation, 100 nM Biotin Histone H3, 20 μM ATP, read-out: IC50 values for IRAK4 activity. As for the experimental part: Compounds were tested for their potential to inhibit IRAK-4 enzyme in a TR-FRET assay using recombinant IRAK-4 kinase from Millipore, USA. The assay buffer was 50 mM Tris-HCl pH 7.5, 20 mM MgCl2, 1 mM EGTA, 2 mM DTT, 3 mM MnCl2 and 0.01% Tween 20.5 ng of IRAK-4 kinase was used for the assay. After pre-incubation of enzyme with test compound for 30 minutes at room temperature, a substrate mixture containing 100 nM Biotin Histone H3 (Millipore, USA) and 20 μM ATP (Sigma, USA) was added and the reaction was incubated for 30 min. Post incubation, the reaction was stopped by the addition of stop mix containing 40 mM EDTA, 1 nM of Europium-Anti-Phospho-Histone H3 (Ser10) antibody (Perkin Elmer, USA) and 20 nM SureLight Allophycocyanin-Streptavidin (Perkin Elmer, USA). The fluorescence emission at 615 nm and 665 nm were measured at an excitation of 340 nm and the percent inhibition was estimated from the ratio of the fluorescence intensities [(F665/F615)×10000]. The compounds were initially screened at 1 μM and 10 μM concentrations and potent compounds (>50% inhibition at 1 μM) were taken for dose response studies. The IC50 values were estimated by fitting the dose-response data to sigmoidal dose response (variable slope), curve fitting program using Graphpad Prism software Version 6.01.
For the molecule `Cn1cc2cc(NC(=O)c3coc(N4CC[C@H](O)C4)n3)c(C3CC3)cc2n1` [Example 55, (S)—N-(6-cyclopropyl-2-methyl-2H-indazol-5-yl)-2-(3-hydroxypyrrolidin-1-yl)oxazole-4-carboxamide], the IC50 is 50 to 100 nM. The result for `Cn1cc2cc(NC(=O)c3cccc(Br)n3)c(N3CCCCC3)cc2n1` [Example 23, 6-bromo-N-(2-methyl-6-(piperidin-1-yl)-2H-indazol-5-yl)picolinamide] reads below 50 nM; that for `Cc1ccc(-c2nc(C(=O)Nc3cc4cn(C)nc4cc3N3CCCCC3)co2)cn1` [Example 25, N-(2-methyl-6-(piperidin-1-yl)-2H-indazol-5-yl)-2-(6-methylpyridin-3-yl)oxazole-4-carboxamide], below 50 nM. The figure for `Cc1cc(-c2nc(C(=O)Nc3cc4cn(C)nc4cc3N3CCCCC3)co2)cc(C)n1` [Example 119, 2-(2,6-dimethylpyridin-4-yl)-N-(2-methyl-6-(piperidin-1-yl)-2H-indazol-5-yl)oxazole-4-carboxamide hydrochloride] is below 50 nM; for `Cc1cc(-c2nc(C(=O)Nc3cc4cn(C5CCCC5)nc4cc3N3CCOCC3)co2)ccn1` [Example 8, N-(2-cyclopentyl-6-morpholino-2H-indazol-5-yl)-2-(2-methylpyridin-4-yl) oxazole-4-carboxamide] it is below 50 nM.

Regarding `COCCn1cc2cc(NC(=O)c3coc(-c4ccnc(C)c4)n3)c(N3CCC(CO)CC3)cc2n1` [Example 96, N-(6-(4-(hydroxymethyl)piperidin-1-yl)-2-(2-methoxyethyl)-2H-indazol-5-yl)-2-(2-methylpyridin-4-yl)oxazole-4-carboxamide], the concentration for half-maximal inhibition (IC50) is below 50 nM. Regarding `Cc1ccc(C(=O)Nc2cc3cn(C)nc3cc2N2CCCCC2)nc1Cl` [Example 24, 6-chloro-5-methyl-N-(2-methyl-6-(piperidin-1-yl)-2H-indazol-5-yl)picolinamide], the half-maximal inhibitory concentration (IC50) was below 50 nM.

Consider `Cc1cc(-c2nc(C(=O)Nc3cc4cn(C)nc4cc3N3CCC3)co2)ccn1` [Example 60, N-(6-(azetidin-1-yl)-2-methyl-2H-indazol-5-yl)-2-(2-methylpyridin-4-yl)oxazole-4-carboxamide], for which the IC50 is below 50 nM. Consider `Cc1cc(-c2nc(C(=O)Nc3cc4c(C)nn(C)c4cc3N3CCC(CO)CC3)co2)ccn1` [Example 111, N-(6-(4-(hydroxymethyl)piperidin-1-yl)-1,3-dimethyl-1H-indazol-5-yl)-2-(2-methylpyridin-4-yl)oxazole-4-carboxamide], for which the 50% inhibitory concentration (IC50) was below 50 nM. For `Cc1cc(-c2nc(C(=O)Nc3cc4cn(C)nc4cc3N3CC[C@H](O)C3)co2)ccn1` [Example 64, (S)—N-(6-(3-hydroxypyrrolidin-1-yl)-2-methyl-2H-indazol-5-yl)-2-(2-methylpyridin-4-yl)oxazole-4-carboxamide], the IC50 was below 50 nM. The result for `Cc1cc(-c2nc(C(=O)Nc3cc4cn(C)nc4cc3N3CCC(CO)CC3)co2)ccn1` [Example 80, N-(6-(4-(hydroxymethyl)piperidin-1-yl)-2-methyl-2H-indazol-5-yl)-2-(2-methylpyridin-4-yl)oxazole-4-carboxamide] reads below 50 nM. As to `COc1ccc(-c2nc(C(=O)Nc3cc4cn(C5CCCC5)nc4cc3C3CC3)co2)cn1` [Example 20, N-(2-cyclopentyl-6-cyclopropyl-2H-indazol-5-yl)-2-(6-methoxypyridin-3-yl)oxazole-4-carboxamide], the IC50 was below 50 nM. For `Cc1cc(-c2nc(C(=O)Nc3cc4cnn(C)c4cc3N3CCC(CO)CC3)co2)ccn1` [Example 89, N-(6-(4-(hydroxymethyl)piperidin-1-yl)-1-methyl-1H-indazol-5-yl)-2-(2-methylpyridin-4-yl)oxazole-4-carboxamide], the IC50 is below 50 nM.

Consider `Cc1cc(-c2ccc(C(=O)Nc3cc4cn(C)nc4cc3N3CCC[C@@H](O)C3)o2)ccn1` [Example 69, (R)—N-(6-(3-hydroxypiperidin-1-yl)-2-methyl-2H-indazol-5-yl)-5-(2-methylpyridin-4-yl)furan-2-carboxamide], for which the IC50 was below 50 nM.
